In BindingDB's records for doi:10.1007/s00210-003-0860-y (UniversitÄT WÜRzburg, 2004):
Structures can show the parent of a compound that is named as a salt.

Columns and labels:
[1] = target: Beta-3 adrenergic receptor (Homo sapiens, UniProt P13945)
[2] = target: Beta-2 adrenergic receptor (Homo sapiens, UniProt P07550)
Chain of Beta-2 adrenergic receptor (P07550 whole entry): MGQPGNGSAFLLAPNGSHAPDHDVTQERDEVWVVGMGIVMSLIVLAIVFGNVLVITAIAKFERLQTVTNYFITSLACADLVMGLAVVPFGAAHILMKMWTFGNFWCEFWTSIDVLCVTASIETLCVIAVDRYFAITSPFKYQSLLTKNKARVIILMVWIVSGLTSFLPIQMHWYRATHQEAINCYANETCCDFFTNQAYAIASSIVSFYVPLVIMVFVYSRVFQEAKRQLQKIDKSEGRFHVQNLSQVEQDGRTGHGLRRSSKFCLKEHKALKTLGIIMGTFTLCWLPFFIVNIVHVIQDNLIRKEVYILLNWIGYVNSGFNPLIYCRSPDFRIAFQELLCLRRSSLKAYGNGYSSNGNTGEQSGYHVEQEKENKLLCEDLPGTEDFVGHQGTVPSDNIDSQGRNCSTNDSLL

Chain of Beta-3 adrenergic receptor (P13945 whole entry): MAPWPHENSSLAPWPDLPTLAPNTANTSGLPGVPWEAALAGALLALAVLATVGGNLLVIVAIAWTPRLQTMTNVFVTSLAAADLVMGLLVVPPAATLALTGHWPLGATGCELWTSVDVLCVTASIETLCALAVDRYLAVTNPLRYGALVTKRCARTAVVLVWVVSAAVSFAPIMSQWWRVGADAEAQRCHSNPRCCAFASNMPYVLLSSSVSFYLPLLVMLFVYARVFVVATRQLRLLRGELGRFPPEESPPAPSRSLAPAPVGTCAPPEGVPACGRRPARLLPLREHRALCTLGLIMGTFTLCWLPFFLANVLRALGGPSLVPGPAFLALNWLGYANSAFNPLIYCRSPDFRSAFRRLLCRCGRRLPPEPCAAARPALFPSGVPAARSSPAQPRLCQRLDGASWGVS

Row | SMILES | Ki [1] | Ki [2]
1 | CC(C)(C)NCC(O)c1cc(O)cc(O)c1 (racemic) [Terbutaline,(+/-)] | > 10 µM | 
2 | CC(C)(C)NCC(O)COc1cccc2[nH]c(=O)[nH]c12 (centres undefined) [4-[3-(tert-butylamino)-2-hydroxypropoxy]-2,3-dihydro-1H-1,3-benzodiazol-2-one hydrochloride] | 0.0771 µM | 
3 | CC(Cc1ccc(OCC(=O)O)cc1)NCC(O)c1cccc(Cl)c1 (centres undefined) [CAS_2437] |  | 9.17 µM
4 | CCc1ccccc1OC[C@@H](O)CN[C@H]1CCCc2ccccc21 [CAS_174689-39-5] | 0.122 µM | 0.0619 µM
5 | CNCC(O)c1ccc(O)c(O)c1 (centres undefined) [EPINEPHRINE] | > 10 µM | 
6 | CC(C)(C)NCC(O)c1cc(Br)no1 (centres undefined) [NSC_71149] | 3.99 µM | 1.29 µM
7 | OCc1cc(C(O)CNCCCCCCOCCCCc2ccccc2)ccc1O (centres undefined) [salmeterol xinafoate] | 7.18 µM | 
